Measurements taken from patent EP1095650A1, “Double phase time-controlled release system” (Universiteit Leiden, priority 1999, dated 2001).

Experiment: Dissolution / release profile of BAEE from the delivery system (USP XXIII dissolution paddle apparatus)
Type: physicochemical
Settings: PBS pH 7.2, 37±1°C, 100 rpm
Procedure: The dissolution of a coated and a non-coated delivery system according to the present invention was investigated by using the standard USP XXIII dissolution paddle apparatus. The paddle speed was 100 rpm and the dissolution medium was phosphate buffer solution (PBS) pH 7.2 at 37±1°C. PBS was prepared according to the method of USP XXIII. Three replicates for each sample were tested at specific interval times and their mean percent release was calculated.
Two release patterns of example 1, showing the release profiles of BAEE from the system with and without a gelatin enteric coating (capsule) are depicted in Figures 6 and 7, respectively.
Data are expressed as mean ± standard deviation (SD, n=6). (Standard USP XXIII dissolution apparatus is used with Phosphate Buffer Solution (PBS) pH = 7.2 as a dissolution medium. Temperature was 37±1°C and paddle speed was 100 rpm).
Data are expressed as mean ±SD (n=6). (Standard USP XXIII dissolution apparatus is used with PBS pH = 7.2 as a dissolution medium. Temperature was 37±1°C and paddle speed was 100 rpm).

CCOC(=O)[C@H](CCCN=C(N)N)NC(=O)c1ccccc1 [BAEE, N-α-benzoyl-L-arginine ethylester]
lag time (system of Example 1 inserted in gelatin capsule and enteric-coated (Figure 7), compared with non-coated system): increased | amount of drug released after the lag time (system of Example 1 not inserted in gelatin capsule (Figure 6), within a short period of time): whole amount of drug is released
